# Like-named read-outs stand apart in the source and are kept apart here.
# Assays:
# [1] = test system: Stenotrophomonas maltophilia; test: MIC/MBC of nanoemulsions against gram-negative isolates (CLSI, alamar blue); format: cell-based; conditions: Stenotrophomonas maltophilia (n = 5), nanoemulsions in the presence of 5 mM EDTA
# Acinetobacter baumannii = test: MIC/MBC against clinical isolates (CLSI, alamar blue); conditions: Acinetobacter baumannii
# Pseudomonas aeruginosa = test: MIC/MBC against CF isolates (CLSI, alamar blue); conditions: Pseudomonas aeruginosa
smiles,measurement,setting,value
C[C@H]1COc2c(N3CCN(C)CC3)c(F)cc3c(=O)c(C(=O)O)cn1c23 [Levofloxacin],MIC50,[1],0.5 µg/mL
same,MIC Range,[1]; in µg/mL,0.5-8
same,MIC50,Acinetobacter baumannii,16 µg/mL
same,MIC90,Acinetobacter baumannii,> 16 µg/mL
same,MBC,Acinetobacter baumannii; Acinetobacter isolate NB31,16 µg/mL
same,MIC,Acinetobacter baumannii; Acinetobacter isolate NB31,16 µg/mL
same,MBC,Acinetobacter baumannii; Acinetobacter isolate NB32,8 µg/mL
same,MIC,Acinetobacter baumannii; Acinetobacter isolate NB32,8 µg/mL
same,MBC,Acinetobacter baumannii; Acinetobacter isolate NB33,8 µg/mL
same,MIC,Acinetobacter baumannii; Acinetobacter isolate NB33,8 µg/mL
same,MBC,Acinetobacter baumannii; Acinetobacter isolate NB34,16 µg/mL
same,MIC,Acinetobacter baumannii; Acinetobacter isolate NB34,16 µg/mL
same,MBC,Acinetobacter baumannii; Acinetobacter isolate NB35,> 16 µg/mL
same,MIC,Acinetobacter baumannii; Acinetobacter isolate NB35,> 16 µg/mL
same,MBC,Acinetobacter baumannii; Acinetobacter isolate NB36,1 µg/mL
same,MIC,Acinetobacter baumannii; Acinetobacter isolate NB36,1 µg/mL
same,MBC,Acinetobacter baumannii; Acinetobacter isolate NB37,16 µg/mL
same,MIC,Acinetobacter baumannii; Acinetobacter isolate NB37,16 µg/mL
same,MBC,Acinetobacter baumannii; Acinetobacter isolate NB38,> 16 µg/mL
same,MIC,Acinetobacter baumannii; Acinetobacter isolate NB38,8 µg/mL
same,MBC,Acinetobacter baumannii; Acinetobacter isolate NB39,16 µg/mL
same,MIC,Acinetobacter baumannii; Acinetobacter isolate NB39,16 µg/mL
same,MBC,Acinetobacter baumannii; Acinetobacter isolate NB40,> 16 µg/mL
same,MIC,Acinetobacter baumannii; Acinetobacter isolate NB40,> 16 µg/mL
same,MBC,"Acinetobacter baumannii; read-out: MBC 50, 10 Acinetobacter isolates",16 µg/mL
same,MIC50,Pseudomonas aeruginosa,0.5 µg/mL
same,MIC90,Pseudomonas aeruginosa,8 µg/mL
same,MBC,Pseudomonas aeruginosa; CF Pseudomonas isolate NB1,1 µg/mL
same,MIC,Pseudomonas aeruginosa; CF Pseudomonas isolate NB1,0.5 µg/mL
same,MBC,Pseudomonas aeruginosa; CF Pseudomonas isolate NB2,0.5 µg/mL
same,MIC,Pseudomonas aeruginosa; CF Pseudomonas isolate NB2,0.5 µg/mL
same,MBC,Pseudomonas aeruginosa; CF Pseudomonas isolate NB3,0.5 µg/mL
same,MIC,Pseudomonas aeruginosa; CF Pseudomonas isolate NB3,0.25 µg/mL
same,MBC,Pseudomonas aeruginosa; CF Pseudomonas isolate NB4,0.5 µg/mL
same,MIC,Pseudomonas aeruginosa; CF Pseudomonas isolate NB4,0.25 µg/mL
same,MBC,Pseudomonas aeruginosa; CF Pseudomonas isolate NB5,1 µg/mL
same,MIC,Pseudomonas aeruginosa; CF Pseudomonas isolate NB5,0.5 µg/mL
same,MBC,Pseudomonas aeruginosa; CF Pseudomonas isolate NB6,1 µg/mL
same,MIC,Pseudomonas aeruginosa; CF Pseudomonas isolate NB6,0.5 µg/mL
same,MBC,Pseudomonas aeruginosa; CF Pseudomonas isolate NB7,1 µg/mL
same,MIC,Pseudomonas aeruginosa; CF Pseudomonas isolate NB7,0.5 µg/mL
same,MBC,Pseudomonas aeruginosa; CF Pseudomonas isolate NB8,0.5 µg/mL
same,MIC,Pseudomonas aeruginosa; CF Pseudomonas isolate NB8,0.5 µg/mL
same,MBC,Pseudomonas aeruginosa; CF Pseudomonas isolate NB9,0.5 µg/mL
same,MIC,Pseudomonas aeruginosa; CF Pseudomonas isolate NB9,0.5 µg/mL
same,MBC,Pseudomonas aeruginosa; CF Pseudomonas isolate NB10,0.5 µg/mL
same,MIC,Pseudomonas aeruginosa; CF Pseudomonas isolate NB10,0.5 µg/mL
same,MBC,Pseudomonas aeruginosa; CF Pseudomonas isolate NB11,16 µg/mL
same,MIC,Pseudomonas aeruginosa; CF Pseudomonas isolate NB11,8 µg/mL
same,MBC,Pseudomonas aeruginosa; CF Pseudomonas isolate NB12,1 µg/mL
same,MIC,Pseudomonas aeruginosa; CF Pseudomonas isolate NB12,0.25 µg/mL
same,MBC,Pseudomonas aeruginosa; CF Pseudomonas isolate NB13,2 µg/mL
same,MIC,Pseudomonas aeruginosa; CF Pseudomonas isolate NB13,0.5 µg/mL
same,MBC,Pseudomonas aeruginosa; CF Pseudomonas isolate NB14,> 16 µg/mL
same,MIC,Pseudomonas aeruginosa; CF Pseudomonas isolate NB14,16 µg/mL
same,MBC,Pseudomonas aeruginosa; CF Pseudomonas isolate NB15,4 µg/mL
same,MIC,Pseudomonas aeruginosa; CF Pseudomonas isolate NB15,2 µg/mL
same,MBC,Pseudomonas aeruginosa; CF Pseudomonas isolate NB16,8 µg/mL
same,MIC,Pseudomonas aeruginosa; CF Pseudomonas isolate NB16,2 µg/mL
same,MBC,Pseudomonas aeruginosa; CF Pseudomonas isolate NB17,16 µg/mL
same,MIC,Pseudomonas aeruginosa; CF Pseudomonas isolate NB17,16 µg/mL
same,MBC,Pseudomonas aeruginosa; CF Pseudomonas isolate NB18,8 µg/mL
same,MIC,Pseudomonas aeruginosa; CF Pseudomonas isolate NB18,4 µg/mL
same,MBC,Pseudomonas aeruginosa; CF Pseudomonas isolate NB19,4 µg/mL
same,MIC,Pseudomonas aeruginosa; CF Pseudomonas isolate NB19,2 µg/mL
same,MBC,Pseudomonas aeruginosa; CF Pseudomonas isolate NB20,1 µg/mL
same,MIC,Pseudomonas aeruginosa; CF Pseudomonas isolate NB20,0.5 µg/mL
same,MBC,"Pseudomonas aeruginosa; read-out: MBC 50, 20 CF Pseudomonas isolates",1 µg/mL
same,MBC,"Pseudomonas aeruginosa; read-out: MBC 50, second MBC 50 line of the summary, Stenotrophomonas, values equal those of the CF Pseudomonas isolates",1 µg/mL
same,MBC,"Pseudomonas aeruginosa; read-out: MBC 90, 20 CF Pseudomonas isolates",16 µg/mL
same,MBC,"Pseudomonas aeruginosa; read-out: MBC 90, second MBC 90 line of the summary, Stenotrophomonas, values equal those of the CF Pseudomonas isolates",16 µg/mL

# Reference: patent publication US20100092526A1, “NANOEMULSION THERAPEUTIC COMPOSITIONS AND METHODS OF USING THE SAME” (NanoBio Corporation, priority 2008, published 2010)
